In PubChem BioAssay (NCI):
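Briefly, cells in 96-well plates were exposed to five compound concentrations for 48 h, and endpoints were estimated by linear interpolation. The concentration for 50% growth inhibition is given as GI50. The concentration for full growth arrest is given as TGI.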

system: OVCAR-8 ovarian; experiment: NCI-60 cell line screen, 48 h

Row | SMILES | GI50 [µM] | TGI [µM]
1 | Nc1ccccc1SC1CC(=O)N(c2ccc(Cl)c(Cl)c2)C1=O (configuration not stated) | 20 | 77.8
2 | CCOC(CN(C)C(=S)Nc1cccc2ccccc12)OCC | – | > 10
3 | COc1cc(CNc2nc3cc(C(F)(F)F)ccc3nc2-c2ccccc2)cc(OC)c1OC | – | > 100
4 | COc1ccc(/C=C(/c2ccccc2)[N+](=O)[O-])cc1 | 2.08 | 6.3

system: SW-620 colon; experiment: NCI-60 cell line screen, 48 h

Row | SMILES | GI50 [µM] | TGI [µM]
5 | Nc1ccccc1SC1CC(=O)N(c2ccc(Cl)c(Cl)c2)C1=O (configuration not stated) | 56.5 | > 100
6 | CCOC(CN(C)C(=S)Nc1cccc2ccccc12)OCC | – | > 10
7 | COc1cc(CNc2nc3cc(C(F)(F)F)ccc3nc2-c2ccccc2)cc(OC)c1OC | – | > 100
8 | COc1ccc(/C=C(/c2ccccc2)[N+](=O)[O-])cc1 | 1.34 | 3.18

system: MDA-MB-435; experiment: NCI-60 cell line screen, 48 h

Row | SMILES | GI50 [µM] | TGI [µM]
9 | Nc1ccccc1SC1CC(=O)N(c2ccc(Cl)c(Cl)c2)C1=O (configuration not stated) | 26.1 | > 100
10 | CCOC(CN(C)C(=S)Nc1cccc2ccccc12)OCC | – | > 10
11 | CCCCN(CCCC)C(=C(C(Cl)=C(Cl)Cl)[N+](=O)[O-])N(CCCC)CCCC | – | > 100
12 | COc1cc(CNc2nc3cc(C(F)(F)F)ccc3nc2-c2ccccc2)cc(OC)c1OC | – | > 100
13 | COc1ccc(/C=C(/c2ccccc2)[N+](=O)[O-])cc1 | 1.3 | 2.69

system: SR leukemia; experiment: NCI-60 cell line screen, 48 h

Row | SMILES | GI50 [µM] | TGI [µM]
14 | Nc1ccccc1SC1CC(=O)N(c2ccc(Cl)c(Cl)c2)C1=O (configuration not stated) | 22.4 | > 100
15 | CCOC(CN(C)C(=S)Nc1cccc2ccccc12)OCC | – | > 10
16 | COc1cc(CNc2nc3cc(C(F)(F)F)ccc3nc2-c2ccccc2)cc(OC)c1OC | – | > 100
17 | COc1ccc(/C=C(/c2ccccc2)[N+](=O)[O-])cc1 | 0.464 | 6.95

system: M14 melanoma; experiment: NCI-60 cell line screen, 48 h

Row | SMILES | GI50 [µM] | TGI [µM]
18 | Nc1ccccc1SC1CC(=O)N(c2ccc(Cl)c(Cl)c2)C1=O (configuration not stated) | 40.4 | > 100
19 | CCOC(CN(C)C(=S)Nc1cccc2ccccc12)OCC | – | > 10
20 | CCCCN(CCCC)C(=C(C(Cl)=C(Cl)Cl)[N+](=O)[O-])N(CCCC)CCCC | – | > 100
21 | COc1cc(CNc2nc3cc(C(F)(F)F)ccc3nc2-c2ccccc2)cc(OC)c1OC | – | > 100
22 | COc1ccc(/C=C(/c2ccccc2)[N+](=O)[O-])cc1 | 1.42 | 2.85

system: HOP-62 NSCLC; experiment: NCI-60 cell line screen, 48 h

Row | SMILES | GI50 [µM] | TGI [µM]
23 | Nc1ccccc1SC1CC(=O)N(c2ccc(Cl)c(Cl)c2)C1=O (configuration not stated) | 21 | 66.7
24 | CCOC(CN(C)C(=S)Nc1cccc2ccccc12)OCC | – | > 10
25 | CCCCN(CCCC)C(=C(C(Cl)=C(Cl)Cl)[N+](=O)[O-])N(CCCC)CCCC | – | > 100
26 | COc1cc(CNc2nc3cc(C(F)(F)F)ccc3nc2-c2ccccc2)cc(OC)c1OC | – | > 100
27 | COc1ccc(/C=C(/c2ccccc2)[N+](=O)[O-])cc1 | 1.82 | 3.79

system: SNB-75 CNS; experiment: NCI-60 cell line screen, 48 h

Row | SMILES | GI50 [µM] | TGI [µM]
28 | Nc1ccccc1SC1CC(=O)N(c2ccc(Cl)c(Cl)c2)C1=O (configuration not stated) | 13.3 | 34.4
29 | CCOC(CN(C)C(=S)Nc1cccc2ccccc12)OCC | – | > 10
30 | CCCCN(CCCC)C(=C(C(Cl)=C(Cl)Cl)[N+](=O)[O-])N(CCCC)CCCC | – | > 100
31 | COc1cc(CNc2nc3cc(C(F)(F)F)ccc3nc2-c2ccccc2)cc(OC)c1OC | – | 44
32 | COc1ccc(/C=C(/c2ccccc2)[N+](=O)[O-])cc1 | 1.16 | 2.44

system: CAKI-1 renal; experiment: NCI-60 cell line screen, 48 h

Row | SMILES | GI50 [µM] | TGI [µM]
33 | Nc1ccccc1SC1CC(=O)N(c2ccc(Cl)c(Cl)c2)C1=O (configuration not stated) | 21.7 | > 100
34 | CCOC(CN(C)C(=S)Nc1cccc2ccccc12)OCC | – | > 10
35 | CCCCN(CCCC)C(=C(C(Cl)=C(Cl)Cl)[N+](=O)[O-])N(CCCC)CCCC | – | > 100
36 | COc1cc(CNc2nc3cc(C(F)(F)F)ccc3nc2-c2ccccc2)cc(OC)c1OC | – | > 100
37 | COc1ccc(/C=C(/c2ccccc2)[N+](=O)[O-])cc1 | 1.55 | 3.28

system: LOX IMVI melanoma; experiment: NCI-60 cell line screen, 48 h

Row | SMILES | GI50 [µM] | TGI [µM]
38 | Nc1ccccc1SC1CC(=O)N(c2ccc(Cl)c(Cl)c2)C1=O (configuration not stated) | 31.7 | > 100
39 | CCOC(CN(C)C(=S)Nc1cccc2ccccc12)OCC | – | > 10
40 | COc1cc(CNc2nc3cc(C(F)(F)F)ccc3nc2-c2ccccc2)cc(OC)c1OC | – | > 100
41 | COc1ccc(/C=C(/c2ccccc2)[N+](=O)[O-])cc1 | 1.47 | 2.89

system: MDA-MB-231 breast; experiment: NCI-60 cell line screen, 48 h

Row | SMILES | GI50 [µM] | TGI [µM]
42 | Nc1ccccc1SC1CC(=O)N(c2ccc(Cl)c(Cl)c2)C1=O (configuration not stated) | 17.9 | > 100
43 | CCOC(CN(C)C(=S)Nc1cccc2ccccc12)OCC | – | > 10
44 | CCCCN(CCCC)C(=C(C(Cl)=C(Cl)Cl)[N+](=O)[O-])N(CCCC)CCCC | – | > 100
45 | COc1cc(CNc2nc3cc(C(F)(F)F)ccc3nc2-c2ccccc2)cc(OC)c1OC | – | 67.5
46 | COc1ccc(/C=C(/c2ccccc2)[N+](=O)[O-])cc1 | 1.59 | 3.09

system: PC-3 prostate; experiment: NCI-60 cell line screen, 48 h

Row | SMILES | GI50 [µM] | TGI [µM]
47 | Nc1ccccc1SC1CC(=O)N(c2ccc(Cl)c(Cl)c2)C1=O (configuration not stated) | 8.78 | > 100
48 | CCOC(CN(C)C(=S)Nc1cccc2ccccc12)OCC | – | > 10
49 | CCCCN(CCCC)C(=C(C(Cl)=C(Cl)Cl)[N+](=O)[O-])N(CCCC)CCCC | – | > 100
50 | COc1ccc(/C=C(/c2ccccc2)[N+](=O)[O-])cc1 | 1.46 | 3.21

system: SN12C renal; experiment: NCI-60 cell line screen, 48 h

Row | SMILES | GI50 [µM] | TGI [µM]
51 | Nc1ccccc1SC1CC(=O)N(c2ccc(Cl)c(Cl)c2)C1=O (configuration not stated) | 28.5 | > 100
52 | CCOC(CN(C)C(=S)Nc1cccc2ccccc12)OCC | – | > 10
53 | CCCCN(CCCC)C(=C(C(Cl)=C(Cl)Cl)[N+](=O)[O-])N(CCCC)CCCC | – | > 100
54 | COc1cc(CNc2nc3cc(C(F)(F)F)ccc3nc2-c2ccccc2)cc(OC)c1OC | – | > 100
55 | COc1ccc(/C=C(/c2ccccc2)[N+](=O)[O-])cc1 | 1.36 | 2.9

system: HOP-92 NSCLC; experiment: NCI-60 cell line screen, 48 h

Row | SMILES | GI50 [µM] | TGI [µM]
56 | Nc1ccccc1SC1CC(=O)N(c2ccc(Cl)c(Cl)c2)C1=O (configuration not stated) | 14.9 | 42.1
57 | CCOC(CN(C)C(=S)Nc1cccc2ccccc12)OCC | – | > 10
58 | CCCCN(CCCC)C(=C(C(Cl)=C(Cl)Cl)[N+](=O)[O-])N(CCCC)CCCC | – | > 100
59 | COc1ccc(/C=C(/c2ccccc2)[N+](=O)[O-])cc1 | 1.08 | 2.48

system: BT-549 breast; experiment: NCI-60 cell line screen, 48 h

Row | SMILES | GI50 [µM] | TGI [µM]
60 | Nc1ccccc1SC1CC(=O)N(c2ccc(Cl)c(Cl)c2)C1=O (configuration not stated) | 62.2 | > 100
61 | CCCCN(CCCC)C(=C(C(Cl)=C(Cl)Cl)[N+](=O)[O-])N(CCCC)CCCC | – | > 100
62 | COc1ccc(/C=C(/c2ccccc2)[N+](=O)[O-])cc1 | 1.42 | 2.88

system: COLO 205 colon; experiment: NCI-60 cell line screen, 48 h

Row | SMILES | GI50 [µM] | TGI [µM]
63 | Nc1ccccc1SC1CC(=O)N(c2ccc(Cl)c(Cl)c2)C1=O (configuration not stated) | 53.1 | > 100
64 | CCOC(CN(C)C(=S)Nc1cccc2ccccc12)OCC | – | > 10
65 | CCCCN(CCCC)C(=C(C(Cl)=C(Cl)Cl)[N+](=O)[O-])N(CCCC)CCCC | – | > 100
66 | COc1cc(CNc2nc3cc(C(F)(F)F)ccc3nc2-c2ccccc2)cc(OC)c1OC | – | 37.3
67 | COc1ccc(/C=C(/c2ccccc2)[N+](=O)[O-])cc1 | 1.79 | 4.07
